Experiments:
[1] = test system: male Wistar rats; assay: Vogel conflict drinking test; format: in vivo, rat; details: 3 mg/kg i.p. 60 min before test, 5 min session, p < 0.05
Method: (§1) The experiments were performed on male Wistar rats (200–220 g—behavioural test or 170–190 g—metabolic assay) obtained from an accredited animal facility at the Jagiellonian University Medical College, Poland. The animals were housed in a group of four in a controlled environment (ambient temperature 21 ± 2 °C; relative humidity 50–60%; 12 h light/dark cycles (lights on at 8:00). Standard laboratory food (LSM-B) and filtered water were freely available (behavioral tests). Animals were assigned randomly to treatment groups. All the experiments were performed by two observers unaware of the treatment applied between 9:00 and 14:00 on separate groups of animals. All animals were used only once.
(§2) Compounds were suspended in 1% Tween 80 immediately before administration in a volume of 2 mL/kg—behavioral tests or 1 mL/kg—body weight measures. Compounds were administered intraperitoneally (i.p.) 60 min before testing—behavioral tests. Control animals received vehicle (1% Tween 80) according to the same schedule.
The testing procedure was based on a method of Vogel et al. and used the Anxiety Monitoring System “Vogel test” produced by TSE Systems (Germany). […] The number of licks and the number of shocks received during a 5 min experimental session were recorded automatically.

[2] = test system: HEK-293 cells; assay: Toxicity in vitro, MTS test; format: cell-based; details: 0.1 μM–100 μM, 72 h
Method: The preliminary evaluation of the safety profile for the most promising 5-HT6R ligands 6 and 26 was performed in vitro with the HEK-293 eukaryotic cell line. The compounds examined were dissolved in culture growth media and incubated with cells for 72 h. Next, the MTS test was applied to determine the viability of the cells. […] The reference cytostatic drug doxorubicin (DX) at the very low concentration 1 μM was also cytotoxic.
The ATCC CRL 1573 HEK-293 cells were seeded in 96-well plates (NuncTM) at a concentration of 1 × 10^4 cells/well in 200 μL in Dulbecco’s Modified Eagle’s Medium (Gibco®) supplemented with 10% fetal bovine serum (Gibco®), and cultured at 37 °C in an atmosphere containing 5% of CO2 for 24 h to reach 60% confluence. The 10 mM stock solutions of 5-HT6R ligands 6 and 26 in DMSO were diluted into fresh growth medium and added into the microplates at the final concentrations 0.1 μM –100 μM. […] The cytostatic drug doxorubicin (Sigma-Aldrich) at the concentration 1 μM was used as a reference. After 72 h of incubation 20 μL of CellTiter 96® AQueous Non-Radioactive Cell Proliferation Assay (MTS) (Promega®) was added to each well and the cells were incubated under the same conditions for 2 h. The absorbance of the samples was measured using a microplate reader EnSpire (PerkinElmer, Waltham, MA, USA) at 490 nm. Statistical significance was analyzed by GraphPad Prism™ software v. 5.01 (GraphPad Software, La Jolla, CA, USA) using One-way ANOVA and Bonferroni’s Multiple Comparison Post Test.

[3] = molecular target: T1, dopaminergic D2LR (Homo sapiens, UniProt P14416); assay: Radioligand binding assay, D2LR, [3H]-Raclopride; details: human D2L receptor stably expressed in HEK-293 cells; read-out: Ki D2 [3H]-Raclopride
T1 construct: expressed in transfected cells; host or cells: HEK-293

[4] = test system: male Wistar rats; assay: Forced swim test (FST); format: in vivo, rat; details: i.p. 60 min before test, 5 min observation, p < 0.05
Method: as §1, §2
The experiment was carried out according to the method of Porsolt et al.. […] On the following day (24 h later), the rats were replaced in the cylinder and the total duration of immobility was recorded during the whole 5-min test period. […]

T1 sequence (P14416 whole entry): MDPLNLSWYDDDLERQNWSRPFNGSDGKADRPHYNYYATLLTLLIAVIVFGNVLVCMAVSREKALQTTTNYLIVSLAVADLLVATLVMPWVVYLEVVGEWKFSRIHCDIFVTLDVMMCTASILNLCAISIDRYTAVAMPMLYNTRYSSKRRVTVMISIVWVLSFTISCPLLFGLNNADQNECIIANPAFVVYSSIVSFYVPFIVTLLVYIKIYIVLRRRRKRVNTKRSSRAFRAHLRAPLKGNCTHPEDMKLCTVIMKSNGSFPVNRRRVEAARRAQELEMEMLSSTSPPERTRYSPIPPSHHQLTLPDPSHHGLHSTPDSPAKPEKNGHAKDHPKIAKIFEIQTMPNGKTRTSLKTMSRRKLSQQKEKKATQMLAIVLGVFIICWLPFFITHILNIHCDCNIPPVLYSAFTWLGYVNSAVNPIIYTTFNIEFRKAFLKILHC

## CN1CCN(c2nc(N)nc(CN3C(=O)NC(C)(c4ccc5ccccc5c4)C3=O)n2)CC1 (stereo not shown) [Compound 26, 3-((4-Amino-6-(4-methylpiperazin-1-yl)-1,3,5-triazin-2-yl)methyl)-5-methyl-5-(naphthalen-2-yl)imidazolidine-2,4-dione]
[1]
  increase of number of accepted shocks: 76%
[2]
  toxicity in HEK-293 cells: no significant toxicity
[3]
  Ki: 4.25 µM
[4]
  decrease of immobility time vs. vehicle treated group: about 20%
